Source: patent US12630563B2, “Macrocyclic RIP2-kinase inhibitors” (Oncodesign S.A., priority 2020, dated 2026)
pIC50: −log10 of the molar value.

target: T1, recombinant hRIPK2 protein (kinase domain aa 1-299-His-tagged) (Homo sapiens, UniProt O43353); assay: RIPK2 AlphaLISA assay (displacement of bead-bound CZC-8004 from hRIPK2); format: binding; details: recombinant hRIPK2 kinase domain 10 nM, 2 h at 23° C.
T1 construct: kinase domain aa 1-299-His-tagged; purchased Life Technologies PR7829A
Method in brief: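 His-tagged kinase domain (10 nM, as diluted) was mixed with compound (0.8% DMSO), acceptor beads bearing the probe CZC-8004 and Ni2+ donor beads. After 2 h at 23 °C, AlphaLISA signal was read. Loss of signal reflects displacement of the probe from RIPK2.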

T1 sequence (O43353 1-299): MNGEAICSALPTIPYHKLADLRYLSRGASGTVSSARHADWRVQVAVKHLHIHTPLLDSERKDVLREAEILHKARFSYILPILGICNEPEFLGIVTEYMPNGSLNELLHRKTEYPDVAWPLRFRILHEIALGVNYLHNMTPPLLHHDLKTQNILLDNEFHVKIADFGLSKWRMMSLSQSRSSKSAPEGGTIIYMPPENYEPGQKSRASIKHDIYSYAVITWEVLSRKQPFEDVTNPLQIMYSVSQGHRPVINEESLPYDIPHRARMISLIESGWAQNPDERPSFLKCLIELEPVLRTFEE

Compound | pIC50
COc1cc2cc(c1)-c1cnn3ccc(nc13)OC[C@@H]1C[C@@H](OCC3CCO3)C(=O)N1CCN2 (stereo partly drawn) [Example 120, (12R,14S)-4-methoxy-12-(oxetan-2-ylmethoxy)-16-oxa-7,10,20,21,24-pentaazapentacyclo[15.5.2.1^2,6.0^1°,^14.0^2°,^23]pentacosa-1(23),2,4,6(25),17(24),18,21-heptaen-11-one] | > 8.00
CCO[C@H]1C[C@H]2COc3ccn4ncc(c4n3)-c3cc(cc(OC)c3)NCCN2C1=O [Example 121, (12S,14S)-12-ethoxy-4-methoxy-16-oxa-7,10,20,21,24-pentaazapentacyclo[15.5.2.1^2,6.0^10,^14.0^20,^23]pentacosa-1(23),2,4,6(25),17(24),18,21-heptaen-11-one] | > 8.00
COCCO[C@@H]1C[C@H]2COc3nc4c(cnn4cc3OC)-c3cc(O)cc(c3)NCCN2C1=O [Example 128, (12R,14S)-4-hydroxy-18-methoxy-12-(2-methoxyethoxy)-16-oxa-7,10,20,21,24-pentaazapentacyclo[15.5.2. 1^2,6.0^10,^14.0^20,^23]pentacosa-1(23),2,4,6(25),17(24),18,21-heptaen-11-one] | > 8.00
COCCO[C@@H]1C[C@H]2COc3nc4c(cnn4cc3OC)-c3cc(F)cc(c3)NCCN2C1=O [Example 129, (12R,14S)-4-fluoro-18-methoxy-12-(2-methoxyethoxy)-16-oxa-7,10,20,21,24-pentaazapentacyclo[15.5.2.1^2,6.0^10,^14.0^20,^23]pentacosa-1(23),2,4,6(25),17(24),18,21-heptaen-11-one] | > 8.00
COCCO[C@@H]1C[C@H]2COc3nc4c(cnn4cc3OC)-c3cc(cc(OC(C)C)c3)NCCN2C1=O [Example 131, (12R,14S)-18-methoxy-12-(2-methoxyethoxy)-4-(propan-2-yloxy)-16-oxa-7,10,20,21,24-pentaazapentacyclo[15.5.2.1^2,6.0^10,^14.0^20,^23]pentacosa-1(23),2,4,6(25),17(24),18,21-heptaen-11-one] | > 8.00
CCO[C@@H]1C[C@H]2COc3nc4c(cnn4cc3OC)-c3cc(cc(OC)c3)NCCN2C1=O [Example 132, (12R,14S)-12-ethoxy-4,18-dimethoxy-16-oxa-7,10,20,21,24-pentaazapentacyclo[15.5.2. 1^2,6.0^10,^14.0^20,^23]pentacosa-1(23),2,4,6(25),17(24),18,21-heptaen-11-one] | > 8.00
COc1cc2cc(c1)-c1cnn3cc(OC)c(nc13)OC[C@@H]1C[C@@H](OC)C(=O)N1CCN2 [Example 133, (12R,14S)-4,12,18-trimethoxy-16-oxa-7,10,20,21,24-pentaazapentacyclo[15.5.2. 1^2,6.0^10,^14.0^20,^23]pentacosa-1(23),2,4,6(25),17(24),18, 21-heptaen-11-one] | > 8.00
COc1cc2cc(c1)-c1cnn3cc(OC)c(nc13)OC[C@@H]1C[C@@H](OCC3COC3)C(=O)N1CCN2 [Example 134, (12R,14S)-4,18-dimethoxy-12-(oxetan-3-ylmethoxy)-16-oxa-7,10,20,21,24-pentaazapentacyclo[15.5.2. 1^2,6.0^10,^14.0^20,^23]pentacosa-1(23),2,4,6(25),17(24),18, 21-heptaen-11-one] | > 8.00
COc1cc2cc(c1)-c1cnn3cc(OC)c(nc13)OC[C@@H]1C[C@@H](OCCN(C)C)C(=O)N1CCN2 [Example 135, (12R,14S)-12-[2-(dimethylamino)ethoxy]-4,18-dimethoxy-16-oxa-7,10,20,21,24-pentaazapentacyclo[15.5.2. 1^2,6.0^10,^14.0^20,^23]pentacosa-1(23),2,4,6(25),17(24),18, 21-heptaen-11-one] | > 8.00
COCCO[C@@H]1C[C@H]2COc3nc4c(cnn4cc3OC3CC4(COC4)C3)-c3cc(cc(OC)c3)NCCN2C1=O [Example 136, (12R,14S)-4-methoxy-12-(2-methoxyethoxy)-18-{2-oxaspiro[3.3]heptan-6-yloxy}-16-oxa-7,10,20,21,24-pentaazapentacyclo[15.5.2. 1^2,6.0^10,^14.0^20,^23]pentacosa-1(23),2,4,6(25),17(24),18,21-heptaen-11-one] | > 8.00
COCCO[C@@H]1C[C@H]2COc3nc4c(cnn4cc3OC3COC3)-c3cc(cc(OC)c3)NCCN2C1=O [Example 138, (12R,14S)-4-methoxy-12-(2-methoxyethoxy)-18-(oxetan-3-yloxy)-16-oxa-7,10,20,21,24-pentaazapentacyclo[15.5.2. 1^2,6.0^10,^14.0^20,^23]pentacosa-1(23),2,4,6(25),17(24),18,21-heptaen-11-one] | > 8.00
[2H]C([2H])([2H])Oc1cc2cc(c1)-c1cnn3cc(OC)c(nc13)OC[C@@H]1C[C@@H](OCCOC)C(=O)N1CCN2 [Example 141, (12R,14S)-4-(^2H3)methoxy-18-methoxy-12-(2-methoxyethoxy)-16-oxa-7,10,20,21,24-pentaazapentacyclo[15.5.2.1^2,6.0^10,^14.0^20,^23]pentacosa-1(23),2,4,6(25),17(24),18,21-heptaen-11-one] | > 8.00
COc1cc2cc(c1)-c1cnn3ccc(nc13)OC[C@@H]1C[C@@H](OC)C(=O)N1C(C)CN2 (stereo partly drawn) [Example 142, (12R,14S)-4,12-dimethoxy-9-methyl-16-oxa-7,10,20,21,24-pentaazapentacyclo[15.5.2.1^2,6.0^1°,^14.0^2°,^23]pentacosa-1(23),2(25),3,5,17(24),18,21-heptaen-11-one] | 7.00 to 8.00
COc1cc2cc(c1)-c1cnn3cc(OC)c(nc13)OC[C@@H]1C[C@@H](O)C(=O)N1CCN2 [Example 143, (12R,14S)-12-hydroxy-4,18-dimethoxy-16-oxa-7,10,20,21,24-pentaazapentacyclo[15.5.2. 1^2,6.0^10,^14.0^20,^23]pentacosa-1(23),2(25),3,5,17(24),18,21-heptaen-11-one] | > 8.00

Further lines, results first:

pIC50 | Compound
> 8.00 | COCCO[C@@H]1C[C@H]2COc3nc4c(cnn4cc3OCC3(C)COC3)-c3cc(cc(OC)c3)NCCN2C1=O [Example 122]
> 8.00 | COCCO[C@@H]1C[C@H]2COc3nc4c(cnn4cc3OCC3CC3)-c3cc(cc(OC)c3)NCCN2C1=O [Example 123, (12R,14S)-18-(cyclopropylmethoxy)-4-methoxy-12-(2-methoxyethoxy)-16-oxa-7,10,20,21,24-pentaazapentacyclo[15.5.2. 1^2,6.0^10,^14.0^20,^23]pentacosa-1(23),2(25),3,5,17(24),18,21-heptaen-11-one]
> 8.00 | CCOc1cn2ncc3c2nc1OC[C@@H]1C[C@@H](OCCOC)C(=O)N1CCNc1cc(OC)cc-3c1 [Example 124, (12R,14S)-18-ethoxy-4-methoxy-12-(2-methoxyethoxy)-16-oxa-7,10,20,21,24-pentaazapentacyclo[15.5.2. 1^2,6.0^10,^14.0^20,^23]pentacosa-1(23),2,4,6(25),17(24),18,21-heptaen-11-one]
> 8.00 | COCCO[C@@H]1C[C@H]2COc3nc4c(cnn4cc3OC(C)C)-c3cc(cc(OC)c3)NCCN2C1=O [Example 125, (12R,14S)-4-methoxy-12-(2-methoxyethoxy)-18-(propan-2-yloxy)-16-oxa-7,10,20,21,24-pentaazapentacyclo[15.5.2. 1^2,6.0^10,^14.0^20,^23]pentacosa-1(23),2,4,6(25),17(24),18,21-heptaen-11-one]
> 8.00 | COCCO[C@@H]1C[C@H]2COc3nc4c(cnn4cc3OCCN(C)C)-c3cc(cc(OC)c3)NCCN2C1=O [Example 126, (12R,14S)-18-[2-(dimethylamino)ethoxy]-4-methoxy-12-(2-methoxyethoxy)-16-oxa-7,10,20,21,24-pentaazapentacyclo[15.5.2. 1^2,6.0^10,^14.0^20,^23]pentacosa-1(23),2,4,6(25),17(24),18,21-heptaen-11-one]
> 8.00 | COCCO[C@@H]1C[C@H]2COc3nc4c(cnn4cc3OCCCN(C)C)-c3cc(cc(OC)c3)NCCN2C1=O [Example 127, (12R,14S)-18-[3-(dimethylamino)propoxy]-4-methoxy-12-(2-methoxyethoxy)-16-oxa-7,10,20,21,24-pentaazapentacyclo[15.5.2. 1^2,6.0^10,^14.0^20,^23]pentacosa-1(23),2,4,6(25),17(24),18,21-heptaen-11-one]
> 8.00 | COCCO[C@@H]1C[C@H]2COc3nc4c(cnn4cc3OCC3CCO3)-c3cc(cc(OC)c3)NCCN2C1=O (stereo partly drawn) [Example 130, (12R,14S)-4-methoxy-12-(2-methoxyethoxy)-18-(oxetan-2-ylmethoxy)-16-oxa-7,10,20,21,24-pentaazapentacyclo[15.5.2. 1^2,6.0^10,^14.0^20,^23]pentacosa-1(23),2,4,6(25),17(24),18,21-heptaen-11-one]
> 8.00 | COCCOc1cn2ncc3c2nc1OC[C@@H]1C[C@@H](OCCOC)C(=O)N1CCNc1cc(OC)cc-3c1 [Example 137, (12R,14S)-4-methoxy-12,18-bis(2-methoxyethoxy)-16-oxa-7,10,20,21,24-pentaazapentacyclo[15.5.2. 1^2,6.0^10,^14.0^20,^23]pentacosa-1(23),2,4,6(25),17(24),18,21-heptaen-11-one]
> 8.00 | COCCO[C@@H]1C[C@H]2COc3nc4c(cnn4cc3OCCO)-c3cc(cc(OC)c3)NCCN2C1=O [Example 139, (12R,14S)-18-(2-hydroxyethoxy)-4-methoxy-12-(2-methoxyethoxy)-16-oxa-7,10,20,21,24-pentaazapentacyclo[15.5.2.1^2,6.0^1°,^14.0^2°,^23]pentacosa-1(23),2,4,6(25),17(24),18,21-heptaen-11-one]
> 8.00 | CCOc1cc2cc(c1)-c1cnn3cc(OC)c(nc13)OC[C@@H]1C[C@@H](OCCOC)C(=O)N1CCN2 [Example 140, (12R,14S)-4-ethoxy-18-methoxy-12-(2-methoxyethoxy)-16-oxa-7,10,20,21,24-pentaazapentacyclo[15.5.2.1^2,6.0^10,^14.0^20,^23]pentacosa-1(23),2,4,6(25),17(24),18,21-heptaen-11-one]
> 8.00 | COCCO[C@@H]1C[C@H]2COc3nc4c(cnn4cc3OCC3COC3)-c3cc(cc(OC)c3)NCCN2C1=O [Example 144]
